Test results published in paper PMC2364994, “Complexes With Biologically Active Ligands. Part 1. Synthesis of Coordination Compounds of Diazoxide With Transition- and Main-Group Cations” (Metal-Based Drugs, 1996).

Key:
[1] = molecular target: T1, human CA I (Homo sapiens, UniProt P00915); experiment: Maren's micromethod, CO2 hydration; type: biochemical; settings: 0 °C, veronal buffer; E-I technique; unit shows as (M) in the extracted table, text says micromolar range
T1 construct: gene CA1; commercial enzyme (Sigma Chemical Co.); isozyme described as erythrocyte CA

[2] = molecular target: T2, Bovine CA II (Bos taurus, UniProt P00921); experiment: Maren's micromethod, CO2 hydration; type: biochemical; settings: 0 °C, veronal buffer; E-I technique; unit shows as (M) in the extracted table, text says micromolar range
T2 construct: gene CA2; commercial enzyme (Sigma Chemical Co.); isozyme described as erythrocyte CA
T2 sequence (P00921 2-260): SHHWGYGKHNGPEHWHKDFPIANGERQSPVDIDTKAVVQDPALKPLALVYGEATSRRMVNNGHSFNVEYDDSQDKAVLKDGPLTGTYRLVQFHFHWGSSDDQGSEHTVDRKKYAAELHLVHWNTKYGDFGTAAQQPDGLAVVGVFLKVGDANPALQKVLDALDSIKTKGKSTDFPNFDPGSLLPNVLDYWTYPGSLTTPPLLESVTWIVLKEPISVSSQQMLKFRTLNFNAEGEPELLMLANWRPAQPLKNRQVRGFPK

T1 sequence (P00915 2-261): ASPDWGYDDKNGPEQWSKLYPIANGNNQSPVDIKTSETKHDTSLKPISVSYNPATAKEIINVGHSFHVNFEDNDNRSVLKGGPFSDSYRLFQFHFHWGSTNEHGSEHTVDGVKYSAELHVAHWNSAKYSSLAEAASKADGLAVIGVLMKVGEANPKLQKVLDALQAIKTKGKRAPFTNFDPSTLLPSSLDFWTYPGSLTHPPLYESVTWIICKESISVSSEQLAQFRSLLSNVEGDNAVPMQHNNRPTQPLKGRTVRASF

[PDZO)(OH)a].2HO [compound 14]
IC50 [1]: 7.2e-05 M | IC50 [2]: 6e-05 M

[VO(DZO)(OH)].HO [compound 17]
IC50 [1]: 0.000105 M | IC50 [2]: 0.000125 M
